Each structure is given as a SMILES string.

The target in one assay is Carbonic anhydrase 9 (Homo sapiens, UniProt Q16790). The experiment in a line: Inhibitory constant against human Carbonic anhydrase IX.
Another assay has as its target Carbonic anhydrase 2 (Homo sapiens, UniProt P00918).
For a further assay, the target named is Carbonic anhydrase 1 (Homo sapiens, UniProt P00915).
Chain of Carbonic anhydrase 1 (P00915 whole entry): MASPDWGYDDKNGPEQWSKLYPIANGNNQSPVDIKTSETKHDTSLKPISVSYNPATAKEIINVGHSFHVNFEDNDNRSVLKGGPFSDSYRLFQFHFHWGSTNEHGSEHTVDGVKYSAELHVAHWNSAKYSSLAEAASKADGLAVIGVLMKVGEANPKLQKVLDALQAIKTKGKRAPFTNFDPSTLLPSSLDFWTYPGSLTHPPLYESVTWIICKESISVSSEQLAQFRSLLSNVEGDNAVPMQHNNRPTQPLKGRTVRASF

Description for Carbonic anhydrase 2: Inhibitory constant against human Carbonic anhydrase II

The Ki is a dissociation constant, usually derived from enzyme kinetics or from competition with a known ligand. Regarding `O=[N+]([O-])c1ccc(SNc2n[nH]c(=S)s2)cc1`, the Ki at Carbonic anhydrase 9 was 256 µM.
The compound `CN(C)c1cccc2c(S(=O)(=O)Nc3nnc(S)s3)cccc12` yielded a Ki on Carbonic anhydrase 9 of 296 µM.
`CCCn1c(S)nnc1-c1ccc(S(=O)(=O)c2ccccc2)cc1`: the Ki on Carbonic anhydrase 9 stood at 119 µM; at Carbonic anhydrase 2, 276 µM; at Carbonic anhydrase 1 it was 290 µM.
As to `CCCCn1c(S)nnc1-c1ccc(S(=O)(=O)c2ccccc2)cc1`, the Ki at Carbonic anhydrase 2 was 604 µM; on Carbonic anhydrase 1 it was 415 µM.
For the compound `O=C(Nc1nnc(S)s1)c1ccccn1`, the affinity on Carbonic anhydrase 9, expressed as Ki, was 306 µM.
As to `CC(=O)Nc1nnc(S)s1`, the Ki at Carbonic anhydrase 9 worked out at 9.5 µM; on Carbonic anhydrase 2 it was 8.8 µM; at Carbonic anhydrase 1, 4.5 µM.
On the same counts, the results for `CCCCn1c(-c2ccc(S(=O)(=O)c3ccc(Cl)cc3)cc2)n[nH]c1=S` are 96.8 µM, 227 µM and 273 µM.
Consider `O=C(Nc1ccc(Cl)c(Cl)c1)Nc1nnc(S)s1`, for which, on Carbonic anhydrase 9, the inhibition constant Ki worked out at 271 µM.
With `O=C(Nc1nnc(S)s1)c1c(F)c(F)c(F)c(F)c1F`, the inhibition constant Ki at Carbonic anhydrase 9 stood at 312 µM; at Carbonic anhydrase 2, 129 µM; on Carbonic anhydrase 1 it was 308 µM.
On to `O=C(Nc1nnc(S)s1)NS(=O)(=O)Nc1nnc(S)s1`, for which the Ki at Carbonic anhydrase 9 was determined as 322 µM.
On the same count and under the same terms, the result for `Nc1nnc(S)s1` reads 9.3 µM.
Take `Cc1cccc(-n2c(-c3ccc(S(=O)(=O)c4ccc(Br)cc4)cc3)n[nH]c2=S)c1`: the results for the Ki on Carbonic anhydrase 9, at Carbonic anhydrase 2 and at Carbonic anhydrase 1 were 320 µM, 301 µM and 254 µM, respectively.
On the same counts, the results for `Cc1ccc(-n2c(-c3ccc(S(=O)(=O)c4ccc(Br)cc4)cc3)n[nH]c2=S)cc1` are 60.4 µM, 251 µM and 249 µM.
In the case of `CCCn1c(-c2ccc(S(=O)(=O)c3ccc(Br)cc3)cc2)n[nH]c1=S`, the Ki amounted to 772 µM on Carbonic anhydrase 9, 382 µM at Carbonic anhydrase 2 and 508 µM on Carbonic anhydrase 1.
`O=C(Nc1nnc(S)s1)N(c1ccccc1)c1ccccc1` gave a Ki on Carbonic anhydrase 9 of 271 µM.
`CCCCn1c(-c2ccc(S(=O)(=O)c3ccc(Br)cc3)cc2)n[nH]c1=S`: affinity at Carbonic anhydrase 9 was put at a Ki of 11.5 µM.
For `CCCn1c(-c2ccc(S(=O)(=O)c3ccc(Cl)cc3)cc2)n[nH]c1=S`, the Ki came to 9.8 µM at Carbonic anhydrase 9, 618 µM at Carbonic anhydrase 2 and 548 µM at Carbonic anhydrase 1.
On the same counts, the results for `O=[N+]([O-])c1ccccc1S(=O)(=O)Nc1n[nH]c(=S)s1` are 315 µM, 230 µM and 303 µM.
`O=C(O)c1cccnc1C(=O)Nc1nnc(S)s1` displayed an inhibition constant Ki on Carbonic anhydrase 9 of 242 µM.
